Reference: patent publication US5321030A, “Creatine analogs having antiviral activity” (priority 1991, dated 1994)
Values after ≈ are worked out from the molar mass of the structure shown. Values joined by “and” are separate entries in the source; they are usually repeats but may differ in a detail not shown here. Identical values can stand only once.

How the values were obtained:
[1] = test system: Parainfluenza Type 3 (PIV-3), strain C243; test: CPE-reduction assay, parainfluenza type 3 in HEp-2 cells; format: cell-based
[2] = test system: HCMV, strain C8704 (DHPG resistant); test: microbe, parasite or virus in culture; format: cell-based, Human Cytomegalovirus; parameters: TI50 (CD50 ÷ ED50): unit not given beside the values; settings: for # Plaques: virus control 91.0 ± 8.4
[3] = test system: HCMV, strain C8805-37 (DHPG resistant); test: microbe, parasite or virus in culture; format: cell-based, Human Cytomegalovirus; parameters: TI50 (CD50 ÷ ED50): unit not given beside the values; settings: for # Plaques: virus control 11.5 ± 2.1
in vitro = settings: monkey, vero cells
HSV-1 = test: Cytopathic effect (CPE) assay, HSV-1

NC1=NCCN1CC(=O)O [cyclocreatine, 1-carboxymethyl-2-iminoimidazolidine]
Average CPE ([1]; 5 mg/ml): 2.8 | Average CPE ([1]; 10 mg/ml): 0.5 | # Plaques ([2]; AM 285 156.25 μg/ml): 81 | # Plaques ([2]; AM 285 312.5 μg/ml): 65.5 | # Plaques ([2]; AM 285 625 μg/ml): 52.5 | # Plaques ([2]; AM 285 1250 μg/ml): 48.5 | # Plaques ([2]; AM 285 2500 μg/ml): 14.5 | # Plaques ([2]; AM 285 5000 μg/ml): 3.5 | # Plaques ([2]; AM 285 10000 μg/ml): 0 | inhibition at 156.25 µg/mL ([2]; Human betaherpesvirus 5, MRC5, AM 285 156.25 μg/ml, read-out: % Reduction): 0% | inhibition at 312.5 µg/mL ([2]; Human betaherpesvirus 5, MRC5, AM 285 312.5 μg/ml, read-out: % Reduction): 28% | inhibition at 625 µg/mL ([2]; Human betaherpesvirus 5, MRC5, AM 285 625 μg/ml, read-out: % Reduction): 42% | inhibition at 1250 µg/mL ([2]; Human betaherpesvirus 5, MRC5, AM 285 1250 μg/ml, read-out: % Reduction): 47% | inhibition at 2500 µg/mL ([2]; Human betaherpesvirus 5, MRC5, AM 285 2500 μg/ml, read-out: % Reduction): 84% | inhibition at 5000 µg/mL ([2]; Human betaherpesvirus 5, MRC5, AM 285 5000 μg/ml, read-out: % Reduction): 96% | inhibition at 10000 µg/mL ([2]; Human betaherpesvirus 5, MRC5, AM 285 10000 μg/ml, read-out: % Reduction): 100% | EC50 ([2]; Human betaherpesvirus 5, MRC5, MRC-5 cells, Table 6, read-out: ED50 (the source's name)): 900 µg/mL (≈ 6.29 mM) | TI50 (CD50 ÷ ED50) ([2]; MRC-5 cells, Table 6): > 11.1 | # Plaques ([3]; AM-285 156.25 μg/ml): 9.5 | # Plaques ([3]; AM-285 312.5 μg/ml): 12 | # Plaques ([3]; AM-285 625 μg/ml): 10.5 | # Plaques ([3]; AM-285 1250 μg/ml): 9.5 | # Plaques ([3]; AM-285 2500 μg/ml): 6.5 | # Plaques ([3]; AM-285 5000 μg/ml): 1.5 | # Plaques ([3]; AM-285 10000 μg/ml): 0 | inhibition at 156.25 µg/mL ([3]; Human betaherpesvirus 5, MRC5, AM-285 156.25 μg/ml, read-out: % Reduction): 0% | inhibition at 312.5 µg/mL ([3]; Human betaherpesvirus 5, MRC5, AM-285 312.5 μg/ml, read-out: % Reduction): 0% | inhibition at 625 µg/mL ([3]; Human betaherpesvirus 5, MRC5, AM-285 625 μg/ml, read-out: % Reduction): 0% | inhibition at 1250 µg/mL ([3]; Human betaherpesvirus 5, MRC5, AM-285 1250 μg/ml, read-out: % Reduction): 0% | inhibition at 2500 µg/mL ([3]; Human betaherpesvirus 5, MRC5, AM-285 2500 μg/ml, read-out: % Reduction): 43% | inhibition at 5000 µg/mL ([3]; Human betaherpesvirus 5, MRC5, AM-285 5000 μg/ml, read-out: % Reduction): 87% | inhibition at 10000 µg/mL ([3]; Human betaherpesvirus 5, MRC5, AM-285 10000 μg/ml, read-out: % Reduction): 100% | EC50 ([3]; Human betaherpesvirus 5, MRC5, MRC-5 cells, Table 7, read-out: ED50 (the source's name)): 2780 µg/mL (≈ 19.4 mM) | TI50 (CD50 ÷ ED50) ([3]; MRC-5 cells, Table 7): > 3.6 | CC50 (in vitro): > 4000 µg/mL and > 28 mM | EC50 (HSV-1; Human alphaherpesvirus 1, Vero, read-out: 50% effective dose (ED50)): 1270 µg/mL and ~9 mM | IC20 (HSV-1; Human alphaherpesvirus 1, Vero, read-out: concentration required for ~20% inhibition): 35 mM | EC65 (HSV-1; Human alphaherpesvirus 1, Vero, read-out: dose required to inhibit cytopathogenicity by 65%): 35 mM | effect on percent monolayer cell death, second set of experiments (HSV-1; Vero cells, 0-200 PFU, series of concentrations): consistent dose-dependent inhibition | dose response against cytopathogenicity (HSV-1; Vero cells, 0.31-5.0 mg/ml, FIG. 16): shows a dose response | effect on cytopathic effect (HSV-1; contact-inhibited A459 cells, FIG. 7A): inhibited the cytopathic effect | effect on cytopathic effect (HSV-1; contact-inhibited BalbC/3T3 cells, FIG. 3A): inhibited the cytopathic effect | effect on cytopathic effect (HSV-1; serum-starved DU145 cells, FIG. 5A): inhibited the cytopathic effect | therapeutic index (HSV-1; serum-starved Vero cells): > 7.6 | effect on cytopathic effect (HSV-1; serum-starved Vero cells, 0.71-4.0 mg/ml, FIG. 1A): inhibited the cytopathic effect
